Reference: ChEMBL document CHEMBL1671741, “The development of ciprofloxacin resistance in Pseudomonas aeruginosa involves multiple response stages and multiple proteins” (2010)
Converted amounts (≈) assume the structure as drawn. The source made the active and inactive calls. The calls are words filed in the database; no cut-off is given here.

Assays:
Pseudomonas aeruginosa [1] = assay: Antibacterial activity against Pseudomonas aeruginosa PAO1 harboring gatA::ISphoA/haha mutation by Etest; format: functional
Pseudomonas aeruginosa [2] = assay: Antibacterial activity against Pseudomonas aeruginosa PAO1 harboring phoU::ISphoA/haha mutation by Etest; format: functional
Pseudomonas aeruginosa [3] = assay: Antibacterial activity against Pseudomonas aeruginosa PAO1 harboring gabD::ISphoA/haha mutation by Etest; format: functional
Pseudomonas aeruginosa [4] = assay: Antibacterial activity against Pseudomonas aeruginosa PAO1 harboring mmsA::ISphoA/haha mutation by Etest; format: functional
Pseudomonas aeruginosa [5] = assay: Antibacterial activity against Pseudomonas aeruginosa PAO1 harboring yaaA::ISphoA/haha mutation by Etest; format: functional
Pseudomonas aeruginosa [6] = assay: Antibacterial activity against Pseudomonas aeruginosa PAO1 harboring gabD::ISlacZ/haha mutation by Etest; format: functional
Pseudomonas aeruginosa [7] = assay: Antibacterial activity against wild type Pseudomonas aeruginosa PAO1 assessed as viable bacterial count by Etest; format: functional
Pseudomonas aeruginosa [8] = assay: Antibacterial activity against Pseudomonas aeruginosa PAO1 horboring mmsA mutant gene assessed as viable bacterial count at 8 times MIC after 48 hrs by Etest; format: functional, organism-based
Pseudomonas aeruginosa [9] = assay: Antibacterial activity against Pseudomonas aeruginosa PAO1 horboring yaaA mutant gene assessed as viable bacterial count at 4 times MIC after 24 hrs by Etest; format: functional, organism-based
Pseudomonas aeruginosa [10] = assay: Antibacterial activity against Pseudomonas aeruginosa PAO1 horboring yaaA mutant gene assessed as viable bacterial count at 8 times MIC after 48 hrs by Etest; format: functional, organism-based
Pseudomonas aeruginosa [11] = assay: Antibacterial activity against wild type Pseudomonas aeruginosa PAK assessed as viable bacterial count at 0.5 times MIC after 48 hrs by Etest; format: functional, organism-based
Pseudomonas aeruginosa [12] = assay: Antibacterial activity against Pseudomonas aeruginosa PAO1 horboring gabD mutant gene assessed as viable bacterial count at 4 times MIC after 24 hrs by Etest; format: functional, organism-based
Pseudomonas aeruginosa [13] = assay: Antibacterial activity against Pseudomonas aeruginosa PAO1 horboring gabD mutant gene assessed as viable bacterial count at 8 times MIC after 48 hrs by Etest; format: functional, organism-based
Pseudomonas aeruginosa [14] = assay: Antibacterial activity against Pseudomonas aeruginosa PAO1 horboring mmsA mutant gene assessed as viable bacterial count at 4 times MIC after 24 hrs by Etest; format: functional, organism-based

Molecule | MIC (Pseudomonas aeruginosa [1]) | MIC (Pseudomonas aeruginosa [2]) | MIC (Pseudomonas aeruginosa [3]) | MIC (Pseudomonas aeruginosa [4]) | MIC (Pseudomonas aeruginosa [5]) | MIC (Pseudomonas aeruginosa [6]) | MIC (Pseudomonas aeruginosa [7]) | Activity (Pseudomonas aeruginosa [8]) | Activity (Pseudomonas aeruginosa [9]) | Activity (Pseudomonas aeruginosa [10]) | Activity (Pseudomonas aeruginosa [11]) | Activity (Pseudomonas aeruginosa [12]) | Activity (Pseudomonas aeruginosa [13]) | Activity (Pseudomonas aeruginosa [14])
CC(C)(O/N=C(\C(=O)N[C@@H]1C(=O)N2C(C(=O)[O-])=C(C[n+]3ccccc3)CS[C@H]12)c1csc(N)n1)C(=O)O [CEFTAZIDIME] | 1 µg/mL (≈ 1.83 µM) | 1.5 µg/mL (≈ 2.74 µM) | 1 µg/mL (≈ 1.83 µM) | 1 µg/mL (≈ 1.83 µM) | 0.75 µg/mL (≈ 1.37 µM) | 1 µg/mL (≈ 1.83 µM) | 1 µg/mL (≈ 1.83 µM) | – | – | – | – | – | – | –
O=C(O)c1cn(C2CC2)c2cc(N3CCNCC3)c(F)cc2c1=O [CIPROFLOXACIN] | 0.19 µg/mL (≈ 0.573 µM) | – | – | – | – | – | – | Active | Active | Active | inactive | inactive | Active | inactive
C[C@@H](O)[C@H]1C(=O)N2C(C(=O)O)=C(SCCNC=N)C[C@H]12 [IMIPENEM ANHYDROUS] | 4 µg/mL (≈ 13.4 µM) | 4 µg/mL (≈ 13.4 µM) | 1.5 µg/mL (≈ 5.01 µM) | 1 µg/mL (≈ 3.34 µM) | 2 µg/mL (≈ 6.68 µM) | 1.5 µg/mL (≈ 5.01 µM) | 4 µg/mL (≈ 13.4 µM) | – | – | – | – | – | – | –
C[C@H]1COc2c(N3CCN(C)CC3)c(F)cc3c(=O)c(C(=O)O)cn1c23.C[C@H]1COc2c(N3CCN(C)CC3)c(F)cc3c(=O)c(C(=O)O)cn1c23.O [LEVOFLOXACIN] | 0.5 µg/mL | – | 0.25 µg/mL | 0.25 µg/mL | 0.25 µg/mL | 0.25 µg/mL | – | – | – | – | – | – | – | –
NC[C@H]1O[C@H](O[C@H]2[C@H](O)[C@@H](O[C@H]3O[C@H](CO)[C@@H](O)[C@H](N)[C@H]3O)[C@H](N)C[C@@H]2N)[C@H](N)C[C@@H]1O [TOBRAMYCIN] | 2 µg/mL (≈ 4.28 µM) | 2 µg/mL (≈ 4.28 µM) | 2 µg/mL (≈ 4.28 µM) | 1.5 µg/mL (≈ 3.21 µM) | 2 µg/mL (≈ 4.28 µM) | 2 µg/mL (≈ 4.28 µM) | 2 µg/mL (≈ 4.28 µM) | – | – | – | – | – | – | –
GENTAMICIN | 3 µg/mL | 3 µg/mL | 3 µg/mL | 2 µg/mL | 3 µg/mL | 3 µg/mL | 2 µg/mL | – | – | – | – | – | – | –
